Converted amounts (≈) assume the structure as drawn.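 How tested: cells in 96-well plates exposed to compound for 48 hours at five concentrations. GI50 = concentration required for 50% inhibition of growth. TGI: concentration producing complete growth inhibition.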
These molecules were tested on A498 renal (assay: growth of human tumour cells (NCI), 48 h).
`O=C(O)Cc1cc(O)c(CC(=O)O)cc1O` was tested, and the TGI was > 100 µM. In the case of `N#Cc1c(Cl)c2cc([N+](=O)[O-])ccc2n2c1nc1ccccc12`, the TGI is reported as > 55.6 µM. For `C=CC1(C)CCC2=C(CCC3C(C)(C(=O)OC)CCCC23C)C1=O` (stereo unspecified), the TGI was 28.4 µM. `O=S1(=O)N(CCNc2nccc(-c3c(-c4cccc(O)c4)nc4sccn34)n2)CCN1Cc1ccccc1` was tested, and the GI50 was 1.78 µM and the TGI was 4.35 µM. `C=C(C)C(=O)OC1CCC2(C)C(CCC3C2CCC2(C)C(c4ccc(=O)oc4)CC4OC432)C1` (stereo unspecified) gave a TGI of 21.8 µM. For `O=C(N/N=C\c1cccc(O)c1)c1ccncc1`, the TGI was > 100 µM. Molecule `Cc1cc(O)c(C(C)(C)C)cc1Sc1cc(C(C)(C)C)c(O)cc1C` has a GI50 of 2.21 µM and a TGI of 6.29 µM. In the case of `O=C1CCCCC2N(C(c3ccccc3)c3ccccc3)CC[C@@]12c1ccccc1` (mixture of isomers), the TGI is reported as > 10 µM. Work on `Cc1nc2ccccc2n1C(=O)c1c(F)c(F)c(F)c(F)c1F` yielded a TGI of 57 µM. In the case of `Clc1ccccc1/C=C/c1cscn1`, the TGI is reported as > 100 µM.

The molecules below were run on BT-549 breast (assay: growth of human tumour cells (NCI), 48 h).
In the case of `O=C(O)Cc1cc(O)c(CC(=O)O)cc1O`, the TGI is reported as > 100 µM. With `N#Cc1c(Cl)c2cc([N+](=O)[O-])ccc2n2c1nc1ccccc12` the TGI was 34.4 µM. In the case of `O=C(N/N=C\c1cccc(O)c1)c1ccncc1`, the TGI is reported as > 100 µM. With `O=C1NN(C2=NNC3(C(=O)N2)c2ccccc2-c2ccccc23)C(c2ccccc2)=N/C1=C/c1ccc(O)cc1` the GI50 was > 150 µg/mL and the TGI was > 150 µg/mL. With `CCOC(=O)C(O)(NC(=O)c1ccc(F)cc1)C(F)(F)F` (stereo unspecified) the TGI was > 100 µM. In the case of `Cc1nc2ccccc2n1C(=O)c1c(F)c(F)c(F)c(F)c1F`, the TGI is reported as 39.5 µM.

Each molecule was assayed on MDA-MB-435 (assay: growth of human tumour cells (NCI), 48 h).
`O=C(O)Cc1cc(O)c(CC(=O)O)cc1O` was tested, and the TGI was > 100 µM. In the case of `N#Cc1c(Cl)c2cc([N+](=O)[O-])ccc2n2c1nc1ccccc12`, the TGI is reported as 4.65 µM. With `O=S1(=O)N(CCNc2nccc(-c3c(-c4cccc(O)c4)nc4sccn34)n2)CCN1Cc1ccccc1` the GI50 was 1.23 µM and the TGI was > 50 µM. In the case of `O=C(N/N=C\c1cccc(O)c1)c1ccncc1`, the TGI is reported as > 100 µM. `Cc1cc(O)c(C(C)(C)C)cc1Sc1cc(C(C)(C)C)c(O)cc1C` gave a GI50 of 1.98 µM and a TGI of 4.14 µM. With `O=C1NN(C2=NNC3(C(=O)N2)c2ccccc2-c2ccccc23)C(c2ccccc2)=N/C1=C/c1ccc(O)cc1` the GI50 was 69.9 µg/mL and the TGI was > 150 µg/mL. With `CCOC(=O)C(O)(NC(=O)c1ccc(F)cc1)C(F)(F)F` (stereo unspecified) the TGI was > 100 µM. `Cc1nc2ccccc2n1C(=O)c1c(F)c(F)c(F)c(F)c1F` was tested, and the TGI was 20 µM.

Each molecule was assayed on MDA-N (assay: growth of human tumour cells (NCI), 48 h).
`O=C(O)Cc1cc(O)c(CC(=O)O)cc1O` was tested, and the TGI was > 100 µM. With `N#Cc1c(Cl)c2cc([N+](=O)[O-])ccc2n2c1nc1ccccc12` the TGI was > 100 µM. For `O=C(N/N=C\c1cccc(O)c1)c1ccncc1`, the TGI was > 100 µM. With `O=C1NN(C2=NNC3(C(=O)N2)c2ccccc2-c2ccccc23)C(c2ccccc2)=N/C1=C/c1ccc(O)cc1` the GI50 was 56.8 µg/mL (≈ 108 µM) and the TGI was > 150 µg/mL. For `CCOC(=O)C(O)(NC(=O)c1ccc(F)cc1)C(F)(F)F` (stereo unspecified), the TGI was > 100 µM. With `Cc1nc2ccccc2n1C(=O)c1c(F)c(F)c(F)c(F)c1F` the TGI was 33.2 µM.

These molecules were tested on NCI-H226 lung (assay: growth of human tumour cells (NCI), 48 h).
In the case of `O=C(O)Cc1cc(O)c(CC(=O)O)cc1O`, the TGI is reported as > 100 µM. `N#Cc1c(Cl)c2cc([N+](=O)[O-])ccc2n2c1nc1ccccc12` showed a TGI of 34.3 µM. In the case of `C=CC1(C)CCC2=C(CCC3C(C)(C(=O)OC)CCCC23C)C1=O` (stereo unspecified), the TGI is reported as 40.2 µM. In the case of `O=S1(=O)N(CCNc2nccc(-c3c(-c4cccc(O)c4)nc4sccn34)n2)CCN1Cc1ccccc1`, the GI50 is reported as 7.45 µM and the TGI is reported as 20.8 µM. Molecule `C=C(C)C(=O)OC1CCC2(C)C(CCC3C2CCC2(C)C(c4ccc(=O)oc4)CC4OC432)C1` (stereo unspecified) has a TGI of 48.1 µM. For `O=C1CCCCC2N(C(c3ccccc3)c3ccccc3)CC[C@@]12c1ccccc1` (mixture of isomers), the TGI was > 10 µM. In the case of `CCOC(=O)C(O)(NC(=O)c1ccc(F)cc1)C(F)(F)F` (stereo unspecified), the TGI is reported as > 100 µM. `Cc1nc2ccccc2n1C(=O)c1c(F)c(F)c(F)c(F)c1F` was tested, and the TGI was 65.5 µM.

The molecules below were run on NCI-H460 lung (assay: growth of human tumour cells (NCI), 48 h).
In the case of `O=C(O)Cc1cc(O)c(CC(=O)O)cc1O`, the TGI is reported as > 100 µM. Work on `N#Cc1c(Cl)c2cc([N+](=O)[O-])ccc2n2c1nc1ccccc12` yielded a TGI of 38.5 µM. `C=CC1(C)CCC2=C(CCC3C(C)(C(=O)OC)CCCC23C)C1=O` (stereo unspecified) gave a TGI of 36.5 µM. For `O=S1(=O)N(CCNc2nccc(-c3c(-c4cccc(O)c4)nc4sccn34)n2)CCN1Cc1ccccc1`, the GI50 was 3.45 µM and the TGI was 17.1 µM. Work on `C=C(C)C(=O)OC1CCC2(C)C(CCC3C2CCC2(C)C(c4ccc(=O)oc4)CC4OC432)C1` (stereo unspecified) yielded a TGI of 7.99 µM. In the case of `O=C(N/N=C\c1cccc(O)c1)c1ccncc1`, the TGI is reported as > 100 µM. `Cc1cc(O)c(C(C)(C)C)cc1Sc1cc(C(C)(C)C)c(O)cc1C` gave a GI50 of 2.89 µM and a TGI of 7.33 µM. In the case of `O=C1CCCCC2N(C(c3ccccc3)c3ccccc3)CC[C@@]12c1ccccc1` (mixture of isomers), the TGI is reported as > 10 µM. `O=C1NN(C2=NNC3(C(=O)N2)c2ccccc2-c2ccccc23)C(c2ccccc2)=N/C1=C/c1ccc(O)cc1` was tested, and the GI50 was 57.6 µg/mL and the TGI was > 150 µg/mL. In the case of `Cc1nc2ccccc2n1C(=O)c1c(F)c(F)c(F)c(F)c1F`, the TGI is reported as 52 µM. `Clc1ccccc1/C=C/c1cscn1` was tested, and the TGI was > 100 µM.

Each molecule was assayed on NCI-H522 lung (assay: growth of human tumour cells (NCI), 48 h).
`O=C(O)Cc1cc(O)c(CC(=O)O)cc1O` was tested, and the TGI was > 100 µM. `N#Cc1c(Cl)c2cc([N+](=O)[O-])ccc2n2c1nc1ccccc12` gave a TGI of 4.71 µM. With `C=CC1(C)CCC2=C(CCC3C(C)(C(=O)OC)CCCC23C)C1=O` (stereo unspecified) the TGI was 29.3 µM. `O=S1(=O)N(CCNc2nccc(-c3c(-c4cccc(O)c4)nc4sccn34)n2)CCN1Cc1ccccc1` showed a GI50 of 2.98 µM and a TGI of 14.9 µM. `C=C(C)C(=O)OC1CCC2(C)C(CCC3C2CCC2(C)C(c4ccc(=O)oc4)CC4OC432)C1` (stereo unspecified) was tested, and the TGI was 8.78 µM. In the case of `O=C(N/N=C\c1cccc(O)c1)c1ccncc1`, the TGI is reported as > 100 µM. `Cc1cc(O)c(C(C)(C)C)cc1Sc1cc(C(C)(C)C)c(O)cc1C` gave a GI50 of 2.73 µM and a TGI of 5.62 µM. For `O=C1CCCCC2N(C(c3ccccc3)c3ccccc3)CC[C@@]12c1ccccc1` (mixture of isomers), the TGI was > 10 µM. With `CCOC(=O)C(O)(NC(=O)c1ccc(F)cc1)C(F)(F)F` (stereo unspecified) the TGI was > 100 µM. With `Cc1nc2ccccc2n1C(=O)c1c(F)c(F)c(F)c(F)c1F` the TGI was 10.9 µM. `Clc1ccccc1/C=C/c1cscn1` was tested, and the TGI was > 100 µM.

Each molecule was assayed on RXF 393 renal (assay: growth of human tumour cells (NCI), 48 h).
`O=C(O)Cc1cc(O)c(CC(=O)O)cc1O` was tested, and the TGI was > 100 µM. `N#Cc1c(Cl)c2cc([N+](=O)[O-])ccc2n2c1nc1ccccc12` gave a TGI of 5.39 µM. `O=S1(=O)N(CCNc2nccc(-c3c(-c4cccc(O)c4)nc4sccn34)n2)CCN1Cc1ccccc1` showed a GI50 of 0.982 µM and a TGI of 9.37 µM. `C=C(C)C(=O)OC1CCC2(C)C(CCC3C2CCC2(C)C(c4ccc(=O)oc4)CC4OC432)C1` (stereo unspecified) showed a TGI of 9.95 µM. With `O=C(N/N=C\c1cccc(O)c1)c1ccncc1` the TGI was > 100 µM. In the case of `Cc1cc(O)c(C(C)(C)C)cc1Sc1cc(C(C)(C)C)c(O)cc1C`, the GI50 is reported as 1.82 µM and the TGI is reported as 3.39 µM. With `O=C1CCCCC2N(C(c3ccccc3)c3ccccc3)CC[C@@]12c1ccccc1` (mixture of isomers) the TGI was > 10 µM. For `O=C1NN(C2=NNC3(C(=O)N2)c2ccccc2-c2ccccc23)C(c2ccccc2)=N/C1=C/c1ccc(O)cc1`, the GI50 was 97 µg/mL and the TGI was > 150 µg/mL. `CCOC(=O)C(O)(NC(=O)c1ccc(F)cc1)C(F)(F)F` (stereo unspecified) was tested, and the TGI was > 100 µM. Molecule `Cc1nc2ccccc2n1C(=O)c1c(F)c(F)c(F)c(F)c1F` has a TGI of 33.5 µM. In the case of `Clc1ccccc1/C=C/c1cscn1`, the TGI is reported as > 100 µM.

The molecules below were run on SNB-75 CNS (assay: growth of human tumour cells (NCI), 48 h).
`N#Cc1c(Cl)c2cc([N+](=O)[O-])ccc2n2c1nc1ccccc12` gave a TGI of 24.6 µM. In the case of `O=S1(=O)N(CCNc2nccc(-c3c(-c4cccc(O)c4)nc4sccn34)n2)CCN1Cc1ccccc1`, the GI50 is reported as 9.38 µM and the TGI is reported as > 50 µM. `C=C(C)C(=O)OC1CCC2(C)C(CCC3C2CCC2(C)C(c4ccc(=O)oc4)CC4OC432)C1` (stereo unspecified) was tested, and the TGI was 36.6 µM. `COc1cc(/C=C2\CCCC3=C2NC(C)=NC3c2cc(OC)c(OC)c(OC)c2)cc(OC)c1OC` (stereo unspecified) was tested, and the GI50 was > 100 µM and the TGI was > 100 µM. `O=C(N/N=C\c1cccc(O)c1)c1ccncc1` was tested, and the TGI was > 100 µM. Work on `Cc1cc(O)c(C(C)(C)C)cc1Sc1cc(C(C)(C)C)c(O)cc1C` yielded a GI50 of 2.99 µM and a TGI of 14.5 µM. For `O=C1CCCCC2N(C(c3ccccc3)c3ccccc3)CC[C@@]12c1ccccc1` (mixture of isomers), the TGI was > 10 µM. In the case of `O=C1NN(C2=NNC3(C(=O)N2)c2ccccc2-c2ccccc23)C(c2ccccc2)=N/C1=C/c1ccc(O)cc1`, the GI50 is reported as 57.4 µg/mL and the TGI is reported as > 150 µg/mL. With `CCOC(=O)C(O)(NC(=O)c1ccc(F)cc1)C(F)(F)F` (stereo unspecified) the TGI was > 100 µM. `Cc1nc2ccccc2n1C(=O)c1c(F)c(F)c(F)c(F)c1F` gave a TGI of 90.1 µM. `Clc1ccccc1/C=C/c1cscn1` was tested, and the TGI was > 100 µM.

These molecules were tested on SW-620 colon (assay: growth of human tumour cells (NCI), 48 h).
In the case of `O=C(O)Cc1cc(O)c(CC(=O)O)cc1O`, the TGI is reported as > 100 µM. `C=CC1(C)CCC2=C(CCC3C(C)(C(=O)OC)CCCC23C)C1=O` (stereo unspecified) gave a TGI of 33.5 µM. For `O=S1(=O)N(CCNc2nccc(-c3c(-c4cccc(O)c4)nc4sccn34)n2)CCN1Cc1ccccc1`, the GI50 was 7.87 µM and the TGI was > 50 µM. In the case of `C=C(C)C(=O)OC1CCC2(C)C(CCC3C2CCC2(C)C(c4ccc(=O)oc4)CC4OC432)C1` (stereo unspecified), the TGI is reported as 25.1 µM. In the case of `COc1cc(/C=C2\CCCC3=C2NC(C)=NC3c2cc(OC)c(OC)c(OC)c2)cc(OC)c1OC` (stereo unspecified), the GI50 is reported as 1.45 µM and the TGI is reported as > 100 µM. In the case of `O=C(N/N=C\c1cccc(O)c1)c1ccncc1`, the TGI is reported as > 100 µM. In the case of `Cc1cc(O)c(C(C)(C)C)cc1Sc1cc(C(C)(C)C)c(O)cc1C`, the GI50 is reported as 3.65 µM and the TGI is reported as 13.7 µM. In the case of `O=C1NN(C2=NNC3(C(=O)N2)c2ccccc2-c2ccccc23)C(c2ccccc2)=N/C1=C/c1ccc(O)cc1`, the GI50 is reported as 82.5 µg/mL and the TGI is reported as > 150 µg/mL. In the case of `CCOC(=O)C(O)(NC(=O)c1ccc(F)cc1)C(F)(F)F` (stereo unspecified), the TGI is reported as > 100 µM. `Cc1nc2ccccc2n1C(=O)c1c(F)c(F)c(F)c(F)c1F` gave a TGI of 49.8 µM.
